Test results: PubChem BioAssay (NCI)
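Briefly, cells in 96-well plates were exposed to five compound concentrations for 48 h, and endpoints were estimated by linear interpolation. GI50 marks 50% less growth. The concentration for full growth arrest is given as TGI.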

Key:
Test in all cases: growth of human tumour cells (NCI), 48 h
786-0 renal = system: 786-0 renal
A498 renal = system: A498 renal
A549 NSCLC = system: A549 NSCLC
ACHN renal = system: ACHN renal
BT-549 breast = system: BT-549 breast
CAKI-1 renal = system: CAKI-1 renal
CCRF-CEM leukemia = system: CCRF-CEM leukemia
COLO 205 colon = system: COLO 205 colon
DU-145 prostate = system: DU-145 prostate
EKVX NSCLC = system: EKVX NSCLC
HCC-2998 colon = system: HCC-2998 colon
HCT-116 colon = system: HCT-116 colon
HCT-15 colon = system: HCT-15 colon
HL-60(TB) leukemia = system: HL-60(TB) leukemia
HOP-62 NSCLC = system: HOP-62 NSCLC
HOP-92 NSCLC = system: HOP-92 NSCLC
HS 578T breast = system: HS 578T breast
HT29 colon = system: HT29 colon
IGROV1 ovarian = system: IGROV1 ovarian
K-562 leukemia = system: K-562 leukemia
KM12 colon = system: KM12 colon
LOX IMVI melanoma = system: LOX IMVI melanoma
M14 melanoma = system: M14 melanoma
MALME-3M melanoma = system: MALME-3M melanoma
MCF7 breast = system: MCF7 breast
MDA-MB-231 breast = system: MDA-MB-231 breast
MDA-MB-435 = system: MDA-MB-435
MOLT-4 leukemia = system: MOLT-4 leukemia
NCI-H226 lung = system: NCI-H226 lung

Q: How did the GI50 (786-0 renal) turn out when `CC(=C(c1ccc(OCCN2CCCC2)cc1)c1ccc(OCCN2CCCC2)cc1)c1ccc(Cl)cc1` was run?
A: The GI50 was 2110 nM.

Q: And the TGI (786-0 renal)?
A: Its TGI is 4520 nM.

Q: What about the GI50 (A498 renal) of the same molecule?
A: The GI50 was 2450 nM.

Q: What about the TGI (A498 renal) of the same molecule?
A: Its TGI is 4850 nM.

Q: What about the GI50 (A549 NSCLC) of the same molecule?
A: Its GI50 is 2740 nM.

Q: What about the TGI (A549 NSCLC) of the same molecule?
A: Its TGI is 5740 nM.

Q: What about the GI50 (ACHN renal) of the same molecule?
A: Its GI50 is 2530 nM.

Q: What about the TGI (ACHN renal) of the same molecule?
A: The TGI was 4780 nM.

Q: What about the GI50 (BT-549 breast) of the same molecule?
A: Its GI50 is 2630 nM.

Q: What about the TGI (BT-549 breast) of the same molecule?
A: Its TGI is 5120 nM.

Q: What about the GI50 (CAKI-1 renal) of the same molecule?
A: Its GI50 is 2500 nM.

Q: And the TGI (CAKI-1 renal)?
A: The TGI was 4850 nM.

Q: And the GI50 (CCRF-CEM leukemia)?
A: Its GI50 is 1400 nM.

Q: And the TGI (CCRF-CEM leukemia)?
A: Its TGI is 4720 nM.

Q: What about the GI50 (COLO 205 colon) of the same molecule?
A: Its GI50 is 2730 nM.

Q: What about the TGI (COLO 205 colon) of the same molecule?
A: Its TGI is 6140 nM.

Q: And the GI50 (DU-145 prostate)?
A: The GI50 was 2600 nM.

Q: What about the TGI (DU-145 prostate) of the same molecule?
A: Its TGI is 5140 nM.

Q: And the GI50 (EKVX NSCLC)?
A: The GI50 was 2270 nM.

Q: And the TGI (EKVX NSCLC)?
A: Its TGI is 4650 nM.

Q: What about the GI50 (HCC-2998 colon) of the same molecule?
A: The GI50 was 2700 nM.

Q: What about the TGI (HCC-2998 colon) of the same molecule?
A: Its TGI is 5320 nM.

Q: What about the GI50 (HCT-116 colon) of the same molecule?
A: Its GI50 is 1150 nM.

Q: What about the TGI (HCT-116 colon) of the same molecule?
A: Its TGI is 3580 nM.

Q: And the GI50 (HCT-15 colon)?
A: The GI50 was 655 nM.

Q: And the TGI (HCT-15 colon)?
A: Its TGI is 2530 nM.

Q: What about the GI50 (HL-60(TB) leukemia) of the same molecule?
A: The GI50 was 3010 nM.

Q: What about the TGI (HL-60(TB) leukemia) of the same molecule?
A: The TGI was 6340 nM.

Q: And the GI50 (HOP-62 NSCLC)?
A: Its GI50 is 2930 nM.

Q: And the TGI (HOP-62 NSCLC)?
A: Its TGI is 5970 nM.

Q: And the GI50 (HOP-92 NSCLC)?
A: Its GI50 is 1490 nM.

Q: What about the TGI (HOP-92 NSCLC) of the same molecule?
A: Its TGI is 3920 nM.

Q: What about the GI50 (HS 578T breast) of the same molecule?
A: Its GI50 is 2680 nM.

Q: And the TGI (HS 578T breast)?
A: The TGI was 6590 nM.

Q: What about the GI50 (HT29 colon) of the same molecule?
A: Its GI50 is 660 nM.

Q: What about the TGI (HT29 colon) of the same molecule?
A: The TGI was 2520 nM.

Q: What about the GI50 (IGROV1 ovarian) of the same molecule?
A: The GI50 was 2560 nM.

Q: What about the TGI (IGROV1 ovarian) of the same molecule?
A: Its TGI is 5110 nM.

Q: What about the GI50 (K-562 leukemia) of the same molecule?
A: The GI50 was 498 nM.

Q: What about the TGI (K-562 leukemia) of the same molecule?
A: The TGI was 1750 nM.

Q: And the GI50 (KM12 colon)?
A: The GI50 was 2660 nM.

Q: What about the TGI (KM12 colon) of the same molecule?
A: Its TGI is 5630 nM.

Q: And the GI50 (LOX IMVI melanoma)?
A: Its GI50 is 516 nM.

Q: And the TGI (LOX IMVI melanoma)?
A: Its TGI is 2620 nM.

Q: And the GI50 (M14 melanoma)?
A: The GI50 was 2130 nM.

Q: And the TGI (M14 melanoma)?
A: The TGI was 4590 nM.

Q: And the GI50 (MALME-3M melanoma)?
A: Its GI50 is 2630 nM.

Q: And the TGI (MALME-3M melanoma)?
A: Its TGI is 5180 nM.

Q: What about the GI50 (MCF7 breast) of the same molecule?
A: Its GI50 is 409 nM.

Q: What about the TGI (MCF7 breast) of the same molecule?
A: Its TGI is 2730 nM.

Q: And the GI50 (MDA-MB-231 breast)?
A: The GI50 was 2370 nM.

Q: And the TGI (MDA-MB-231 breast)?
A: Its TGI is 4950 nM.

Q: And the GI50 (MDA-MB-435)?
A: The GI50 was 2620 nM.

Q: And the TGI (MDA-MB-435)?
A: Its TGI is 5030 nM.

Q: And the GI50 (MOLT-4 leukemia)?
A: The GI50 was 1380 nM.

Q: What about the TGI (MOLT-4 leukemia) of the same molecule?
A: Its TGI is 4390 nM.

Q: And the GI50 (NCI-H226 lung)?
A: Its GI50 is 3040 nM.

Q: And the TGI (NCI-H226 lung)?
A: Its TGI is 6180 nM.
